Experimental findings from patent publication US8916702B2 (priority 2012, dated 2014) are described below.

Like-named read-outs stand apart in the source and are kept apart here.

The assay relates to HCV pseudoparticles (genotype 1a HCV E1 and E2 envelope, H77C isolate). As to the kind of experiment: microbe, parasite or virus in culture. The following applies: Hepatitis C virus. The class given is cell-based.
Where [1] appears, read: Huh-7, 48 h, read-out: Activity (EC50 class), HCV pseudoparticle infection of Huh7 cells, luciferase 2 days after infection, EC50 expressed as class A/B.
[2] abbreviates: Huh-7, 48 h, read-out: Activity (EC50 class), HCV pseudoparticles, Huh7 cells, luciferase 2 days after infection, average of duplicates.
The mark [3] stands for this setting: Huh-7, read-out: Activity (EC50 class), HCV pseudoparticles (genotype 1a, H77C) in Huh7 cells, EC50 expressed as class A/B.
The mark [4] stands for this setting: Huh-7, 48 h, HCV pseudoparticles (genotype 1a, H77C) in Huh7 cells, average of duplicate, luciferase 2 days after infection.
The mark [5] stands for this setting: Huh-7, 48 h, HCV pseudoparticle infection of Huh7 cells, luciferase 2 days after infection, average of duplicates.

The EC50 is the concentration at which the effect is half-maximal. On to `O=C(NC[C@H](NC(=O)c1ccc(Nc2nc(NC3(c4ccc(Cl)cc4)CC3)nc(OCC(F)(F)F)n2)cc1)C(=O)O)C(=O)NC1(C2CCCCC2)CC1` [Compound 1472], for which, under setting [1], the EC50 was in the range of 0.01 to 10 nM.

In the case of `O=C(NCC[C@H](NC(=O)c1ccc(Nc2nc(NC3(c4ccc(Cl)cc4)CC3)nc(OCC(F)(F)F)n2)cc1)C(=O)O)C(=O)NC1CCCCCC1` [Compound 1122], the EC50 under setting [1] was 0.01 to 10 nM.

As to `COc1cccc(C2CC2CNC(=O)C(=O)NCC[C@H](NC(=O)c2ccc(Nc3nc(NC4(c5ccc(Cl)cc5)CC4)nc(OCC(F)(F)F)n3)cc2)C(=O)O)c1` (stereo partly drawn) [Compound 1423], the EC50 under setting [1] was in the range of 0.01 to 10 nM.

As to `O=C(NC[C@H](NC(=O)c1ccc(Nc2nc(NC3(c4ccc(Cl)cc4)CC3)nc(OCC(F)(F)F)n2)cc1)C(=O)O)C(=O)Nc1cccc(CN2CCCC2)c1` [Compound 3778], the EC50 under setting [2] lay in the range of 0.01 to 10 nM.

In the case of `CC(C)(CNC(=O)C(=O)Nc1ccc(C(=O)c2ccccc2)cc1)CNC(=O)c1ccc(Nc2nc(NC3(c4ccc(Cl)cc4)CC3)nc(OCC(F)(F)F)n2)cc1` [Compound 3142], the EC50 under setting [3] was 0.01 to 10 nM.

As for `COC(=O)[C@H](CNC(=O)C(=O)N(C)c1ccccc1)NC(=O)c1ccc(Nc2nc(NC3(c4ccc(Cl)cc4)CC3)nc(OCC(F)(F)F)n2)cc1` [Compound 1257], the EC50 under setting [1] fell in the range of 0.01 to 10 nM.

Take `COC(=O)[C@H](CCNC(=O)C(=O)Nc1ccc(-c2cnco2)cc1)NC(=O)c1ccc(Nc2nc(NC3(c4ccc(Cl)cc4)CC3)nc(OCC(F)(F)F)n2)cc1` [Compound 3122]: the EC50 under setting [3] is 0.01 to 10 nM.

Take `COC(=O)[C@H](CNC(=O)C(=O)Nc1cccc(-c2nncn2C)c1)NC(=O)c1ccc(Nc2nc(NC3(c4ccc(Cl)cc4)CC3)nc(OCC(F)(F)F)n2)cc1` [Compound 3719]: the EC50 under setting [2] lay within 0.01 to 10 nM.

In the case of `COC(=O)[C@H](CNC(=O)C(=O)NC1CCCCC1O)NC(=O)c1ccc(Nc2nc(NC3(c4ccc(Cl)cc4)CC3)nc(OCC(F)(F)F)n2)cc1` (stereo partly drawn) [Compound 1051], under setting [1], the EC50 was 0.01 to 10 nM.

Regarding `O=C(NCC(O)CNC(=O)c1ccc(Nc2nc(NC3(c4ccc(Cl)cc4)CC3)nc(OCC(F)(F)F)n2)cc1)C(=O)Nc1ccc(F)cc1` (stereo not drawn) [Compound 3365], the EC50 was 0.024 nM under setting [4] and 0.01 to 10 nM under setting [3].

Turning to `CCC(CC)NC(=O)C(=O)NC[C@H](NC(=O)c1ccc(Nc2nc(NC3(c4ccc(Cl)cc4)CC3)nc(OCC(F)(F)F)n2)cc1)C(=O)O` [Compound 1091], the EC50 under setting [1] is 0.01 to 10 nM.

For the compound `O=C1CC(NC(=O)C(=O)NC[C@H](NC(=O)c2ccc(Nc3nc(NC4(c5ccc(Cl)cc5)CC4)nc(OCC(F)(F)F)n3)cc2)C(=O)O)CCN1` (stereo partly drawn) [Compound 1082], the EC50 under setting [1] lay in the range of 0.01 to 10 nM.

For `COC(=O)[C@H](CCNC(=O)C(=O)NCCn1cncn1)NC(=O)c1ccc(Nc2nc(NC3(c4ccc(Cl)cc4)CC3)nc(OCC(F)(F)F)n2)cc1` [Compound 1321], the EC50 under setting [1] was 0.01 to 10 nM.

On to `O=C(NCCc1ccc(F)cc1)C(=O)NCC[C@H](NC(=O)c1ccc(Nc2nc(NC3(c4ccc(Cl)cc4)CC3)nc(OCC(F)(F)F)n2)cc1)C(=O)O` [Compound 1336], for which the EC50 is 0.88 nM under setting [5] and 0.01 to 10 nM under setting [1].

With `COC(=O)[C@@H](CCNC(=O)C(=O)Nc1cccc(OC(F)(F)F)c1)NC(=O)c1ccc(Nc2nc(NC3(c4ccc(Cl)cc4)CC3)nc(OCC(F)(F)F)n2)cc1` [Compound 3577], the EC50 by setting is: under setting [4], 0.16 nM; under setting [3], 0.01 to 10 nM.

As for `CC(C)(CNC(=O)C(=O)Nc1ccccc1C1CC1)CNC(=O)c1ccc(Nc2nc(NC3(c4ccc(Cl)cc4)CC3)nc(OCC(F)(F)F)n2)cc1` [Compound 3076], the EC50 under setting [3] fell in the range of 0.01 to 10 nM.

For `COC(=O)[C@H](CCNC(=O)C(=O)NC1(Cc2ccccc2)CC1)NC(=O)c1ccc(Nc2nc(NC3(c4ccc(Cl)cc4)CC3)nc(OCC(F)(F)F)n2)cc1` [Compound 1325], the EC50 under setting [1] fell in the range of 0.01 to 10 nM.

In the case of `CCc1ccc(COc2nc(Nc3ccc(C(=O)NCC(C)(C)CNC(=O)C(=O)Nc4ccc(C)cc4)cc3)nc(NC3(c4ccc(Cl)cc4)CC3)n2)cc1` [Compound 3842], under setting [2], the EC50 lay within 0.01 to 10 nM.

`COC(=O)[C@H](CNC(=O)C(=O)NCc1ccc(OC)cc1OC)NC(=O)c1ccc(Nc2nc(NC3(c4ccc(Cl)cc4)CC3)nc(OCC(F)(F)F)n2)cc1` [Compound 1137]: the EC50 under setting [1] was 0.01 to 10 nM.

Take `COC(=O)[C@H](CNC(=O)C(=O)NCCc1ccccn1)NC(=O)c1ccc(Nc2nc(NC3(c4ccc(Cl)cc4)CC3)nc(OCC(F)(F)F)n2)cc1` [Compound 1282]: the EC50 under setting [1] was in the range of 0.01 to 10 nM.

For `COC(=O)[C@H](CNC(=O)C(=O)Nc1ccc(F)cc1)NC(=O)c1ccc(Nc2nc(NC3(c4ccc(Cl)cc4)CC3)nc(OCC(F)(F)F)n2)cc1` [Compound 1252], the EC50 under setting [1] fell in the range of 0.01 to 10 nM.

For the compound `COc1ccc(C2(Nc3nc(Nc4ccc(C(=O)NCC(C)(C)CNC(=O)C(N)=O)cc4)nc(OCC(F)(F)F)n3)CC2)cc1Cl` [Compound 3333], the EC50 under setting [3] lay within 0.01 to 10 nM.

For `COC(=O)[C@H](CCNC(=O)C(=O)Nc1cccc(-c2ccccc2)c1)NC(=O)c1ccc(Nc2nc(NC3(c4ccc(Cl)cc4)CC3)nc(OCC(F)(F)F)n2)cc1` [Compound 1522], the EC50 under setting [5] is 0.1 nM and the EC50 under setting [1] fell in the range of 0.01 to 10 nM.

For `CC(C)(C)OC(=O)N1CCCC(CNC(=O)C(=O)NC[C@H](NC(=O)c2ccc(Nc3nc(NC4(c5ccc(Cl)cc5)CC4)nc(OCC(F)(F)F)n3)cc2)C(=O)O)C1` (stereo partly drawn) [Compound 1468], under setting [1], the EC50 was 0.01 to 10 nM.

Take `COCc1ccc(NC(=O)C(=O)NC[C@H](NC(=O)c2ccc(Nc3nc(NC4(c5ccc(Cl)cc5)CC4)nc(OCC(F)(F)F)n3)cc2)C(=O)OC)cc1` [Compound 3205]: under setting [3], the EC50 lay in the range of 0.01 to 10 nM.

Regarding `O=C(NCCNC(=O)c1ccc(Nc2nc(NC3(c4ccc(Cl)cc4)CC3)nc(OCC(F)(F)F)n2)cc1)C(=O)NCc1ccc(F)cc1` [Compound 3370], the EC50 under setting [3] was in the range of 0.01 to 10 nM.

In the case of `O=C(NCC[C@H](NC(=O)c1ccc(Nc2nc(NC3(c4ccc(Cl)cc4)CC3)nc(OCC(F)(F)F)n2)cc1)C(=O)O)C(=O)Nc1ccc(C(F)(F)F)cc1` [Compound 1275], the EC50 under setting [1] fell in the range of 0.01 to 10 nM.

As for `O=C(NCCCCNC(=O)c1ccc(Nc2nc(NC3(c4ccc(Cl)cc4)CC3)nc(OCC(F)(F)F)n2)cc1)C(=O)N1CCCCC1` [Compound 3401], the EC50 under setting [3] was 0.01 to 10 nM.

As for `COC(=O)[C@H](CNC(=O)C(=O)Nc1ccc(OCCN2CCCCC2)nc1)NC(=O)c1ccc(Nc2nc(NC3(c4ccc(Cl)cc4)CC3)nc(OCC(F)(F)F)n2)cc1` [Compound 3736], under setting [2], the EC50 was 0.01 to 10 nM.

Consider `O=C(NCC[C@H](NC(=O)c1ccc(Nc2nc(NC3(c4ccc(Cl)cc4)CC3)nc(OCC(F)(F)F)n2)cc1)C(=O)O)C(=O)Nc1ccc(C2=CCC(N3CCOCC3)=N2)cc1` [Compound 3539], for which, under setting [3], the EC50 fell in the range of 10 to 1000 nM.

Consider `CC(O)(CNC(=O)C(N)=O)CNC(=O)c1ccc(Nc2nc(NC3(c4ccc(Cl)cc4)CC3)nc(OCC(F)(F)F)n2)cc1` (stereo not drawn) [Compound 3834], for which the EC50 is 0.086 nM (Huh-7, 48 h, HCV pseudoparticles, Huh7 cells, luciferase 2 days after infection, average of duplicates) and 0.01 to 10 nM under setting [2].

Consider `CC(C)(CNC(=O)C(=O)Nc1ccc(C(C)(C)C)cc1)CNC(=O)c1ccc(Nc2nc(NC3(c4ccc(Cl)cc4)CC3)nc(OCC(F)(F)F)n2)cc1` [Compound 1576], for which the EC50 under setting [1] is 0.01 to 10 nM.

On to `Cc1ccc(NC(=O)C(=O)NCC(C)CNC(=O)c2ccc(Nc3nc(NC4(c5ccc(Cl)cc5)CC4)nc(OCC(F)(F)F)n3)cc2)cc1Cl` (stereo not drawn) [Compound 3474], for which, under setting [3], the EC50 lay in the range of 0.01 to 10 nM.

`CC(C)(CNC(=O)C(=O)NCc1cccc(C(=N)N)c1)CNC(=O)c1ccc(Nc2nc(NC3(c4ccc(Cl)cc4)CC3)nc(OCC(F)(F)F)n2)cc1` [Compound 3039]: the EC50 under setting [3] was 0.01 to 10 nM.
